One may read the EC50 as the concentration giving half of the maximal effect. A low value points to a more potent agent.

Bounds are passed on as bounds.

T1 sequence (O60706 1-1549 isoform O60706-2): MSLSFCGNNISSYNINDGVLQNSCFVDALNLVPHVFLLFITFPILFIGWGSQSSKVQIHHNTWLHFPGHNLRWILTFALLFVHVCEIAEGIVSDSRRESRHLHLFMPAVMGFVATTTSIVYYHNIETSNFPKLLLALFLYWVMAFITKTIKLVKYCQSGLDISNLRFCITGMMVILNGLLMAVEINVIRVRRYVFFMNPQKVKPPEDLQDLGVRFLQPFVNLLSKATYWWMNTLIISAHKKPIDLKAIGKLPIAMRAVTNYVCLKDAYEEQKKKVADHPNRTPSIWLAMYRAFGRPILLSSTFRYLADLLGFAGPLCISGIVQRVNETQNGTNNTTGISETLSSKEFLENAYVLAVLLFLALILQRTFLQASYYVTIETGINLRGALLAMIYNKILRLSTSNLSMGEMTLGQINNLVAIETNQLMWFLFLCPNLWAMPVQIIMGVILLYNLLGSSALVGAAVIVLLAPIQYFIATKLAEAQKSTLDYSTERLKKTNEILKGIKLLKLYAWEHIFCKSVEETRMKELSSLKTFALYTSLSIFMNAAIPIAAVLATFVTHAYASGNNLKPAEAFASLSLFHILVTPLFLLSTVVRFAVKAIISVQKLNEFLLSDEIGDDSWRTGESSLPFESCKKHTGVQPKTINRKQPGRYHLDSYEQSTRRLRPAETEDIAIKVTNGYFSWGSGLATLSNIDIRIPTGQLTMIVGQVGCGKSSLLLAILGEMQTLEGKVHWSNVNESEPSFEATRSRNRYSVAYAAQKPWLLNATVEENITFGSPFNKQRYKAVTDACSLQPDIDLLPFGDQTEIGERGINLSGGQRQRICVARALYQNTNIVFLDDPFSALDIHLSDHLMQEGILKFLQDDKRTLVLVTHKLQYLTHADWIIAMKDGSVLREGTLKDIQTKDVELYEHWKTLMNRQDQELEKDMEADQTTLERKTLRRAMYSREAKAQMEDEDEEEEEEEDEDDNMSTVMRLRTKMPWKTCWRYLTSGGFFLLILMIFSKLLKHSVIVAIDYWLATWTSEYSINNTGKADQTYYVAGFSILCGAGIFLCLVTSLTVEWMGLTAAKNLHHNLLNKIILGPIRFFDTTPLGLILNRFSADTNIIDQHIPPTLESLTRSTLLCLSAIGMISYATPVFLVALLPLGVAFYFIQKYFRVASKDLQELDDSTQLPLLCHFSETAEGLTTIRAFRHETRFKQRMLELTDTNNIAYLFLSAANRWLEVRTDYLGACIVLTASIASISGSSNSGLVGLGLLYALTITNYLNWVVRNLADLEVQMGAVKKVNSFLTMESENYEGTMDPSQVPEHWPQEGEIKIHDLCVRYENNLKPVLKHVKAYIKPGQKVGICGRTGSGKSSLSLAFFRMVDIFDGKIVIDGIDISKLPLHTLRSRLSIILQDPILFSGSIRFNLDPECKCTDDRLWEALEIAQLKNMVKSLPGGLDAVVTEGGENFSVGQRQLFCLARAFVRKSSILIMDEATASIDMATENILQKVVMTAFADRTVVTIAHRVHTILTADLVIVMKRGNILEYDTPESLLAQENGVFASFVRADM
T1 sequence (Q14654 whole entry): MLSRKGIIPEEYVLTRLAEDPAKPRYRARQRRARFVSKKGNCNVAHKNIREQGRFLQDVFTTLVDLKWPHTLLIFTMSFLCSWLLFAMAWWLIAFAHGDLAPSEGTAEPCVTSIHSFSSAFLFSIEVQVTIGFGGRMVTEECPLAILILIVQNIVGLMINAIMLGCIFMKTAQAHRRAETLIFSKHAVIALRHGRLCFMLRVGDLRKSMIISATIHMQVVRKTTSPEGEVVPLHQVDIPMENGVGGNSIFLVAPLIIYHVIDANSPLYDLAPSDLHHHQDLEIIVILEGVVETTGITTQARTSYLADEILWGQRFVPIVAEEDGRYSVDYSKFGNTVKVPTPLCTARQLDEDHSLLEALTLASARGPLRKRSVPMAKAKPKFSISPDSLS

This assay has as its target T1, KATP channels (Homo sapiens, UniProt O60706+Q14654).
T1 construct: TE671 human medulloblastoma cells were obtained from ATCC; host or cells: TE671 human medulloblastoma cells
Nature of the assay: Potassium Channel Assay (FLIPR membrane potential, TE671 cells). The class given is cell-based. The conditions noted are these: TE671 human medulloblastoma cells, Membrane Potential Assay Dye, room temperature, hyperpolarization from KATP channel opening. The method, then:
TE671 human medulloblastoma cells were obtained from ATCC and grown in Dulbecco's modified Eagle's medium (DMEM) supplemented with 10% fetal bovine serum, 100 U/ml penicillin and 100 U/ml streptomycine.
The day before testing, the cells were plated in black 96-well plates at 50K/well. On the day of testing, the growth media was removed, then 100 μl of FLIPR buffer (20 mM HEPES, 120 mM NaCl, 2 mM KCl, 2 mM CaCl2, 1 mM MgCl2, 5 mM Glucose) and 100 μl of Membrane Potential Assay Dye (Molecular Devices) dissolved in FLIPR buffer were added to each well. The cells were incubated at room temperature for 15 to 30 min.
The effect of test compounds on KATP channels were evaluated on a fluorometric imaging plate reader (FLIPR, Molecular Devices) at room temperature. After a baseline period, 50 μl of 5× stock solution of test compound prepared in FLIPR buffer was added and fluorescent change was monitored for 3 minutes. After this reading, glyburide, a KATP channel blocker, was added to a final concentration of 5 μM to check the specificity of the test compound as a KATP channel openers. Hyperpolarization resulting from KATP channel opening was observed as a decrease in fluorescent intensity.
Representative compounds of the present invention were tested according to the procedure described above, with results as listed in Table 7, below.
For the compound `CC1(C)Oc2ccc(C#N)cc2[C@@H](Nc2nc3cc(Cl)ccc3s2)[C@@H]1O` (racemic) [Compound 1, 4-(5-Chloro-benzothiazol-2-ylamino)-3-hydroxy-2,2-dimethyl-chroman-6-carbonitrile], the half-maximal effective concentration (EC50) is 14.6 µM.

In the case of `CC1(C)Oc2ccc(C#N)cc2[C@@H](Nc2nc3cc(Cl)ccc3o2)[C@@H]1O` (racemic) [Compound 2, 4-(5-Chloro-benzooxazol-2-ylamino)-3-hydroxy-2,2-dimethyl-chroman-6-carbonitrile], the response was half-maximal at 16.5 µM (EC50). The EC50 values of the last two compounds are within 1.5-fold of each other. `CC1(C)Oc2ccc(Cl)cc2C(OC(=O)c2cccc(Cl)c2)C1O` (racemic) [Compound 3] displayed an EC50 of 26.3 µM. Against the preceding compound, the EC50 is about 1.6-fold higher. For the compound `CCOc1ccc2sc(N[C@@H]3c4cc(C#N)ccc4OC(C)(C)[C@H]3O)nc2c1` (racemic) [Compound 4, 4-(5-Ethoxy-benzothiazol-2-ylamino)-3-hydroxy-2,2-dimethyl-chroman-6-carbonitrile], the EC50 turned out to be 2.6 µM. `CC1(C)Oc2ccc(C#N)cc2[C@@H](Nc2nc3cc(F)ccc3s2)[C@@H]1O` (racemic) [Compound 5, 4-(5-Fluoro-benzothiazol-2-ylamino)-3-hydroxy-2,2-dimethyl-chroman-6-carbonitrile] gave an EC50 of 8.44 µM.

Compound `CC1(C)Oc2ccc(C#N)cc2[C@@H](Nc2nc3cc([N+](=O)[O-])ccc3s2)[C@@H]1O` (racemic) [Compound 6, 3-Hydroxy-2,2-dimethyl-4-(5-nitro-benzothiazol-2-ylamino)-chroman-6-carbonitrile] registered a concentration for a half-maximal effect (EC50) of 3.09 µM. Regarding `CC1(C)Oc2ccc(C#N)cc2[C@@H](Nc2nc(=O)c3cc(Cl)ccc3[nH]2)[C@@H]1O` (racemic) [Compound 7, 4-(6-Chloro-4-oxo-1,4-dihydro-quinazolin-2-ylamino)-3-hydroxy-2,2-dimethyl-chroman-6-carbonitrile], the EC50 was 2.29 µM. This EC50 and that of the compound before are within 1.5-fold of each other. In the case of `CC1(C)Oc2ccc(C#N)cc2[C@@H](Oc2cc(N)nc3ccccc23)[C@@H]1O` (racemic) [Compound 8, 4-(2-Amino-quinolin-4-yloxy)-3-hydroxy-2,2-dimethyl-chroman-6-carbonitrile], the EC50 came to 3.71 µM. `Cc1cn([C@@H]2c3cc(C#N)ccc3OC(C)(C)[C@H]2O)c(-c2ccccc2)n1` (racemic) [Compound 9, 3-Hydroxy-2,2-dimethyl-4-(4-methyl-2-phenyl-imidazol-1-yl)-chroman-6-carbonitrile] yielded an EC50 of over 30 µM. `CC1(C)Oc2ccc(C#N)cc2[C@@H](n2ccnc2-c2ccc(Cl)cc2)[C@@H]1O` (racemic) [Compound 12, 4-[2-(4-Chloro-phenyl)-imidazol-1-yl]-3-hydroxy-2,2-dimethyl-chroman-6-carbonitrile]: the EC50 stood at 5.7 µM.

For `CC1(C)Oc2ccc(Cl)cc2[C@@H](N2C(=O)CCN2c2ccccc2)[C@@H]1O` (racemic) [Compound 13, 2-(6-Chloro-3-hydroxy-2,2-dimethyl-chroman-4-yl)-1-phenyl-pyrazolidin-3-one], the concentration for a half-maximal effect (EC50) turned out to be 3.16 µM. As to `CC1(C)Oc2ccc(C#N)cc2[C@@H](n2nc(-c3ccc(Cl)cc3)ccc2=O)[C@@H]1O` (racemic) [Compound 14, 4-[3-(4-Chloro-phenyl)-6-oxo-6H-pyridazin-1-yl]-3-hydroxy-2,2-dimethyl-chroman-6-carbonitrile], the EC50 was over 30 µM. Turning to `CC1(C)Oc2ccc(C#N)cc2[C@@H](n2c(=O)ccn2-c2ccc(Cl)cc2)[C@@H]1O` (racemic) [Compound 15, 4-[2-(4-Chloro-phenyl)-5-oxo-2,5-dihydro-pyrazol-1-yl]-3-hydroxy-2,2-dimethyl-chroman-6-carbonitrile], it took 5.93 µM to reach a half-maximal effect (EC50). This counts as single-digit micromolar. `CC1(C)Oc2ccc(C#N)cc2[C@@H](Sc2nc3cc(OC(F)F)ccc3[nH]2)[C@@H]1O` (racemic) [Compound 16, 4-(5-Difluoromethoxy-1H-benzoimidazol-2-ylsulfanyl)-3-hydroxy-2,2-dimethyl-chroman-6-carbonitrile] had an EC50 of over 30 µM. In the case of `CC1(C)Oc2ccc(C#N)cc2[C@@H](S(=O)(=O)c2nc3cc(Cl)ccc3o2)[C@@H]1O` (racemic) [Compound 17, 4-(5-Chloro-benzooxazole-2-sulfonyl)-3-hydroxy-2,2-dimethyl-chroman-6-carbonitrile], a half-maximal response (EC50) required 6.77 µM. Then `CC1(C)Oc2ccc(C#N)cc2[C@@H](n2cncc2-c2ccc(Cl)cc2)[C@@H]1O` (racemic) [Compound 18, 4-[5-(4-Chloro-phenyl)-imidazol-1-yl]-3-hydroxy-2,2-dimethyl-chroman-6-carbonitrile], with 7.45 µM; and `CC1(C)Oc2ccc(C#N)cc2[C@@H](S(=O)(=O)c2noc3cc(Cl)ccc23)[C@@H]1O` (racemic) [Compound 19, 4-(6-Chloro-benzo[d]isoxazole-3-sulfonyl)-3-hydroxy-2,2-dimethyl-chroman-6-carbonitrile], with 15.4 µM; and `CC1(C)Oc2ccc(C#N)cc2[C@@H](Oc2nsc3ccccc23)[C@@H]1O` (racemic) [Compound 20, 4-(Benzo[d]isothiazol-3-yloxy)-3-hydroxy-2,2-dimethyl-chroman-6-carbonitrile], with 16.1 µM. As for `CC1(C)Oc2ccc(C#N)cc2[C@@H](n2ccnc2-c2ccccc2)[C@@H]1O` (racemic) [Compound 47, 3-Hydroxy-2,2-dimethyl-4-(2-phenyl-imidazol-1-yl)-chroman-6-carbonitrile], the figure is over 30 µM; as for `CC1(C)Oc2ccc(C#N)cc2[C@@H](N2CCN(c3ccc(F)cc3)CC2)[C@@H]1O` (racemic) [Compound 48, 4-[4-(4-Fluoro-phenyl)-piperazin-1-yl]-3-hydroxy-2,2-dimethyl-chroman-6-carbonitrile], 6.34 µM; as for `CC1(C)Oc2ccc(Cl)cc2[C@@H](n2ccnc2-c2ccccc2)[C@@H]1O` (racemic) [Compound 49, 6-Chloro-2,2-dimethyl-4-(2-phenyl-imidazol-1-yl)-chroman-3-ol], over 30 µM. For `CC1(C)Oc2ccc(C#N)cc2[C@@H](N2CCN(c3ccc(Cl)cc3)CC2)[C@@H]1O` (racemic) [Compound 50, 4-[4-(4-Chloro-phenyl)-piperazin-1-yl]-3-hydroxy-2,2-dimethyl-chroman-6-carbonitrile], the concentration giving a half-maximal response (EC50) was over 30 µM. `CC1(C)Oc2ccc(C#N)cc2[C@@H](N2CCN(c3ccc([N+](=O)[O-])cc3)CC2)[C@@H]1O` (racemic) [Compound 51, 3-Hydroxy-2,2-dimethyl-4-[4-(4-nitro-phenyl)-piperazin-1-yl]-chroman-6-carbonitrile] returned an EC50 of over 30 µM.

Regarding `CC1(C)Oc2ccc(C#N)cc2[C@@H](Oc2ccc(-c3ccccc3)nn2)[C@@H]1O` (racemic) [Compound 52, 3-Hydroxy-2,2-dimethyl-4-(6-phenyl-pyridazin-3-yloxy)-chroman-6-carbonitrile], the EC50 was 3.9 µM. This counts as single-digit micromolar. In turn, `CC1(C)Oc2ccc(C#N)cc2[C@@H](Oc2ccn(-c3ccc(Cl)cc3)n2)[C@@H]1O` (racemic) [Compound 55, 4-[1-(4-Chloro-phenyl)-1H-pyrazol-3-yloxy]-3-hydroxy-2,2-dimethyl-chroman-6-carbonitrile] gave an EC50 of 8.82 µM. The compound `CC1(C)Oc2ccc(C#N)cc2[C@@H](Oc2ccc(-c3ccc(Cl)cc3)nn2)[C@@H]1O` (racemic) [Compound 56, 4-[6-(4-Chloro-phenyl)-pyridazin-3-yloxy]-3-hydroxy-2,2-dimethyl-chroman-6-carbonitrile] registered an EC50 of over 30 µM.

For the origin of these results see patent US7812183B2, “Benzopyran derivatives as potassium channel openers” (Janssen Pharmaceutica NV, priority 2005, dated 2010).
